Measured values as given in BindingDB's records for doi:10.1016/j.ejmech.2023.115229 (Sichuan University, 2023).

Target: Ribosomal protein S6 kinase alpha-2 (Homo sapiens, UniProt Q15349)
Assay: Inhibition of RSK3 (unknown origin)

Sequence of Ribosomal protein S6 kinase alpha-2 (Q15349 whole entry): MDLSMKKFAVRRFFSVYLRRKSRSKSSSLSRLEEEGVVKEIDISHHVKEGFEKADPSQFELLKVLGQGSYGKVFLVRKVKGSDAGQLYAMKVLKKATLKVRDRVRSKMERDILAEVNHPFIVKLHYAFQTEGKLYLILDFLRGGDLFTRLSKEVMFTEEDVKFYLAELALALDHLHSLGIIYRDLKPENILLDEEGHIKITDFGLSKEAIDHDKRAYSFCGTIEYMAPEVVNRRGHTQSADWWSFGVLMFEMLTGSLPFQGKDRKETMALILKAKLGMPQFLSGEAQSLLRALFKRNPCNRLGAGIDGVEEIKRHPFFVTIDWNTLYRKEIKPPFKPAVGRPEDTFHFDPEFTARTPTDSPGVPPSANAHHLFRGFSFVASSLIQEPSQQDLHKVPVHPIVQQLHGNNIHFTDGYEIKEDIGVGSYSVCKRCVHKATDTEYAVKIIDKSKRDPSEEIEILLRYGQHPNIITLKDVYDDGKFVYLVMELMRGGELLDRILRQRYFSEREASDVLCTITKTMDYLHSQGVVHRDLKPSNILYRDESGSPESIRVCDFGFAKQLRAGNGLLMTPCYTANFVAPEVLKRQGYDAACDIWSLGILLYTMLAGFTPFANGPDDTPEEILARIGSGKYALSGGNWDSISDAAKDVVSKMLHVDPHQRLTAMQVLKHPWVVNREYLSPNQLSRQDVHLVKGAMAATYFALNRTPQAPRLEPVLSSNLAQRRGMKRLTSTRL

O=c1c(O)c(-c2ccc(O)c(O)c2)oc2cc(O)ccc12 [2-(3,4-dihydroxyphenyl)-3,7-dihydroxy-chromen-4-one]
IC50: 891 nM
